Assay results taken from patent US10174067B2, “Type of cytidine derivative and application thereof” (priority 2014, dated 2019).
Marks after values point to notes of the source that are not given here.

What was measured:
ICR mice = assay: in vivo; conditions: female ICR mice; single-dose ip
In short: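 MTD, the dose without mortality, body-weight loss over 10% from Day 0 or marked adverse signs, was found by stepwise up/down single intraperitoneal dosing of female SPF ICR mice. Vehicle: ethanol:Cremophor EL:saline 5:5:90. Animals weighed daily and clinically checked twice daily for up to 14 days.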

[1] = In short: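 Test compounds formulated in ethanol:Cremophor EL:saline (5:5:90), vehicle alone as control, in HCT-116 subcutaneous xenografts in female Balb/c nudes (6/group, start 60–150 mm^3). Weight measured three times weekly, tumour weight at end; unpaired t-test on Mean±SEM data.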
[2] = system: HCT-116 colon cancer xenografts; assay: Tumor growth inhibition of HCT-116 colon cancer xenografts in tumor-bearing nude mice (tumor volume, TGI %, RTV, T/C %); type: in vivo, Balb/c Nude mice; conditions: G10-G16 groups, single IP 400 mg/kg
In short: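 Tumors in HCT-116-inoculated nude mice were sized three times weekly by diameter, with volume V=3/4π(D/2)^3. Significance set at P<0.05.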

[3] = Day 1, G10-G16 groups, single IP 400 mg/kg, Mean±SEM
[4] = Day 2, G10-G16 groups, single IP 400 mg/kg, Mean±SEM
[5] = Day 4, G10-G16 groups, single IP 400 mg/kg, Mean±SEM
[6] = Day 7, G10-G16 groups, single IP 400 mg/kg, Mean±SEM
[7] = Day 9, G10-G16 groups, single IP 400 mg/kg, Mean±SEM
[8] = Day 11, G10-G16 groups, single IP 400 mg/kg, Mean±SEM
[9] = Day 14, G10-G16 groups, single IP 400 mg/kg, Mean±SEM
[10] = Day 16, G10-G16 groups, single IP 400 mg/kg, Mean±SEM
[11] = Day 18, G10-G16 groups, single IP 400 mg/kg, Mean±SEM
[12] = Day 21, G10-G16 groups, single IP 400 mg/kg, Mean±SEM
[13] = Day 23, G10-G16 groups, single IP 400 mg/kg, Mean±SEM
[14] = Day 25, G10-G16 groups, single IP 400 mg/kg, Mean±SEM
[15] = Day 28, G10-G16 groups, single IP 400 mg/kg, Mean±SEM
[16] = Day 30, G10-G16 groups, single IP 400 mg/kg, Mean±SEM

SMILES: O=C(COc1nc(Cl)c(Cl)cc1Cl)OCC1OC(n2cc(-c3cn(Cc4ccccc4)nn3)c(NC(=O)OCc3ccc([N+](=O)[O-])cc3)nc2=O)C(F)(F)C1O (centres unmarked) [Compound G13]
- dose that could be tolerated (maximum tolerated dose, MTD) (ICR mice): 400 mg/kg
- Weight change rate, Day 0 ([1]; Day 0, G10-G16 groups, single IP 400 mg/kg): 0.00%
- Weight of mice, Day 0 ([1]; Day 0, G10-G16 groups, single IP 400 mg/kg, Mean±SEM): 20.43 ± 0.27 g
- Weight change rate, Day 1 [1, 3]: −6.73 ± 0.73 %
- Weight of mice, Day 1 [1, 3]: 19.05 ± 0.17 g
- Weight change rate, Day 2 [1, 4]: −6.78 ± 0.95 %
- Weight of mice, Day 2 [1, 4]: 19.05 ± 0.35 g
- Weight change rate, Day 4 [1, 5]: −3.29 ± 1.05%
- Weight of mice, Day 4 [1, 5]: 19.77 ± 0.40 g
- Weight change rate, Day 7 [1, 6]: −2.67 ± 1.20%
- Weight of mice, Day 7 [1, 6]: 19.90 ± 0.48 g
- Weight change rate, Day 9 [1, 7]: 0.07 ± 2.05%
- Weight of mice, Day 9 [1, 7]: 20.47 ± 0.64 g
- Weight change rate, Day 11 [1, 8]: 0.61 ± 2.23%
- Weight of mice, Day 11 [1, 8]: 20.58 ± 0.69 g
- Weight change rate, Day 14 [1, 9]: 0.35 ± 2.75%
- Weight of mice, Day 14 [1, 9]: 20.53 ± 0.79 g
- Weight change rate, Day 16 [1, 10]: 3.83 ± 3.60%
- Weight of mice, Day 16 [1, 10]: 21.25 ± 0.94 g
- Weight change rate, Day 18 [1, 11]: 4.84 ± 3.19 %
- Weight of mice, Day 18 [1, 11]: 21.45 ± 0.85 g
- Weight change rate, Day 21 [1, 12]: 4.12 ± 3.07 %
- Weight of mice, Day 21 [1, 12]: 21.30 ± 0.81 g
- Day 22 Mortality ([1]; Day 22, single IP dose (mg/kg)): 0%
- Weight change rate, Day 23 [1, 13]: 5.17 ± 4.24%
- Weight of mice, Day 23 [1, 13]: 21.44 ± 1.05 g
- Weight change rate, Day 25 [1, 14]: 9.03 ± 4.91%
- Weight of mice, Day 25 [1, 14]: 22.24 ± 1.24 g
- Weight change rate, Day 28 [1, 15]: 12.25 ± 3.97%
- Weight of mice, Day 28 [1, 15]: 23.08 ± 0.97 g
- Weight change rate, Day 30 [1, 16]: 13.32 ± 4.25%
- Weight of mice, Day 30 [1, 16]: 23.30 ± 1.07 g
- clinical symptoms ([1]; after single IP dose, compared with model control group): no significant differences in clinical symptoms
- Day 0 (RTV) ([2]; Day 0): 1.00
- Tumor volume, Day 0 ([2]; Day 0, Mean±SEM): 61.03 ± 13.76* mm^3
- Day 1 (TGI %) ([2]; Day 1): 77.92%
- Day 1 (RTV) ([2]; Day 1, Mean±SEM): 0.91 ± 0.12
- Tumor volume, Day 1 ([2]; Day 1, Mean±SEM): 48.89 ± 5.84** mm^3
- Day 2 (TGI %) ([2]; Day 2): 76.34%
- Day 2 (RTV) ([2]; Day 2, Mean±SEM): 0.95 ± 0.11
- Tumor volume, Day 2 ([2]; Day 2, Mean±SEM): 52.50 ± 8.43** mm^3
- Day 4 (TGI %) ([2]; Day 4): 73.88%
- Day 4 (RTV) ([2]; Day 4, Mean±SEM): 1.31 ± 0.07
- Tumor volume, Day 4 ([2]; Day 4, Mean±SEM): 77.58 ± 16.80** mm^3
- Day 7 (TGI %) ([2]; Day 7): 68.32%
- Day 7 (RTV) ([2]; Day 7, Mean±SEM): 2.39 ± 0.28
- Tumor volume, Day 7 ([2]; Day 7, Mean±SEM): 137.02 ± 30.02** mm^3
- Day 9 (TGI %) ([2]; Day 9): 55.73%
- Day 9 (RTV) ([2]; Day 9, Mean±SEM): 4.07 ± 0.37
- Tumor volume, Day 9 ([2]; Day 9, Mean±SEM): 261.35 ± 79.51* mm^3
- Day 11 (TGI %) ([2]; Day 11): 56.17%
- Day 11 (RTV) ([2]; Day 11, Mean±SEM): 6.38 ± 0.77
- Tumor volume, Day 11 ([2]; Day 11, Mean±SEM): 427.82 ± 136.59** mm^3
- Day 14 (TGI %) ([2]; Day 14): 46.84%
- Day 14 (RTV) ([2]; Day 14, Mean±SEM): 11.17 ± 1.45
- Tumor volume, Day 14 ([2]; Day 14, Mean±SEM): 765.65 ± 247.40* mm^3
- Day 16 (TGI %) ([2]; Day 16): 43.43%
- Day 16 (RTV) ([2]; Day 16, Mean±SEM): 15.55 ± 1.37
- Tumor volume, Day 16 ([2]; Day 16, Mean±SEM): 1024.48 ± 288.64* mm^3
- Day 18 (TGI %) ([2]; Day 18): 36.04%
- Day 18 (RTV) ([2]; Day 18, Mean±SEM): 19.86 ± 1.32
- Tumor volume, Day 18 ([2]; Day 18, Mean±SEM): 1278.22 ± 336.74 mm^3
- Day 21 (TGI %) ([2]; Day 21): 32.28%
- Day 21 (RTV) ([2]; Day 21, Mean±SEM): 26.98 ± 0.99
- Tumor volume, Day 21 ([2]; Day 21, Mean±SEM): 1655.72 ± 370.44 mm^3
- Day 23 (TGI %) ([2]; Day 23): 39.64%
- Day 23 (RTV) ([2]; Day 23, Mean±SEM): 27.42 ± 1.09
- Tumor volume, Day 23 ([2]; Day 23, Mean±SEM): 1425.63 ± 355.57 mm^3
- Day 25 (TGI %) ([2]; Day 25): 38.81%
- Day 25 (RTV) ([2]; Day 25, Mean±SEM): 30.60 ± 1.01
- Tumor volume, Day 25 ([2]; Day 25, Mean±SEM): 1580.18 ± 380.76 mm^3
- Day 28 (TGI %) ([2]; Day 28): 44.77%
- Day 28 (RTV) ([2]; Day 28, Mean±SEM): 35.76 ± 0.97
- Tumor volume, Day 28 ([2]; Day 28, Mean±SEM): 1485.25 ± 290.76 mm^3
- Day 30 (TGI %) ([2]; Day 30): 38.58%
- Day 30 (RTV) ([2]; Day 30, Mean±SEM): 42.06 ± 2.09
- Tumor volume, Day 30 ([2]; Day 30, Mean±SEM): 1723.43 ± 289.91 mm^3
